Values after ≈ are worked out from the molar mass of the structure shown. Active and inactive are the calls of the source. The rule behind the calls is not given here.
What was measured:
[1] = tested on: Mycobacterium tuberculosis; assay: (§1) AntiMycobacterium tuberculosis activity day 10 in 7H9/2.5mM butyrate/pH6/0.1mM nitrite MIC90 (uM); format: functional; conditions: 240 h
[2] = tested on: Mycobacterium tuberculosis; assay: AntiMycobacterium tuberculosis activity 2-week 7H9/ADC/Tw MIC (uM); format: functional; conditions: 336 h
[3] = tested on: Mycobacterium tuberculosis; assay: AntiMycobacterium tuberculosis activity 2-week 7H9/glucose/BSA/Tx MIC (uM); format: functional; conditions: 336 h
[4] = tested on: Mycobacterium tuberculosis; assay: AntiMycobacterium tuberculosis activity 2-week GAST/Fe MIC (uM); format: functional; conditions: 336 h
[5] = tested on: Mycobacterium tuberculosis; assay: AntiMycobacterium tuberculosis activity day 21 MIC99 in 7H9/2.5mM butyrate/pH6/0.1mM nitrite MIC99 (uM); format: functional; conditions: 504 h
[6] = tested on: Mycobacterium tuberculosis; assay: AntiMycobacterium tuberculosis activity 2-week 7H9/DPPC/cholesterol/BSA/Tx MIC (uM); format: functional; conditions: 336 h
[7] = tested on: Mycobacterium tuberculosis; assay: AntiMycobacterium tuberculosis activity Replicating form: Average MIC90 (uM); format: functional
[8] = tested on: Mycobacterium tuberculosis; assay: AntiMycobacterium tuberculosis activity 1-week 7H9/glucose/BSA/Tx MIC (uM); format: functional; conditions: 168 h
[9] = tested on: Mycobacterium tuberculosis; assay: AntiMycobacterium tuberculosis activity 1-week 7H9/cholesterol/BSA/Tx MIC (uM); format: functional; conditions: 168 h
[10] = tested on: Mycobacterium tuberculosis; assay: AntiMycobacterium tuberculosis activity 1-week 7H9/ADC/Tw MIC (uM); format: functional; conditions: 168 h
[11] = tested on: Mycobacterium tuberculosis; assay: AntiMycobacterium tuberculosis activity day 21 in 7H9/2.5mM butyrate/pH6/0.1mM nitrite MIC90 (uM); format: functional; conditions: 504 h
[12] = tested on: Mycobacterium tuberculosis; assay: as §1; format: functional; conditions: 240 h; remark: listed apart in the source
[13] = tested on: Mycobacterium tuberculosis; assay: AntiMycobacterium tuberculosis activity 1-week GAST/Fe MIC (uM); format: functional; conditions: 168 h
[14] = tested on: Mycobacterium tuberculosis; assay: AntiMycobacterium tuberculosis activity Non-Replicating form: Average MIC90 (uM); format: functional
[15] = tested on: Mycobacterium tuberculosis; assay: AntiMycobacterium tuberculosis activity 2-week Alamar Blue 7H9/ADC/Tw MIC (uM); format: functional; conditions: 336 h
[16] = tested on: HepG2; assay: HepG2 CC50 (uM) Cytotoxicity; format: functional; conditions: Homo sapiens
[17] = tested on: Mycobacterium tuberculosis; assay: AntiMycobacterium tuberculosis activity 2-week Alamar Blue 7H9/cholesterol/BSA/Tx MIC (uM); format: functional; conditions: 336 h
[18] = tested on: Mycobacterium tuberculosis; assay: AntiMycobacterium tuberculosis activity 1-week 7H9/DPPC/cholesterol/BSA/Tx MIC (uM); format: functional; conditions: 168 h
[19] = tested on: Plasmodium falciparum; assay: Antimalarial activity: Asexual Blood Stage Plasmodium falciparum W2 IC50 (uM); format: functional, organism-based
[20] = tested on: Plasmodium falciparum; assay: Antimalarial activity: Gametocytes Plasmodium falciparum NF54 Gametocytes Stage V: inhibition at 10 uM (%); format: functional
[21] = tested on: Plasmodium falciparum; assay: Antimalarial activity: Asexual Blood Stage Plasmodium falciparum 3D7 IC50 (uM); format: functional, organism-based
[22] = tested on: Plasmodium berghei; assay: Antimalarial activity: Liver Stage Plasmodium berghei sporozoite Luciferase assay: inhibition at 10 uM (%); format: functional
[23] = tested on: HepG2; assay: Cytotoxicity data HepG2 CC20 (uM); format: functional

SMILES | MIC90 [1] [µM] | MIC [2] [µM] | MIC [3] [µM] | MIC [4] [µM] | MIC [5] [µM] | MIC [6] [µM] | MIC90 [7] [µM] | MIC [8] [µM] | MIC [9] [µM] | MIC [10] [µM] | MIC90 [11] [µM] | MIC90 [12] [µM] | MIC [13] [µM] | MIC90 [14] [µM] | MIC [15] [µM] | CC50 [16] [µM] | MIC [17] [µM] | MIC [18] [µM] | further results
CC(C)(C(=O)Nc1ccc(F)cc1)n1cc(-c2ccccc2F)cn1 | 6.25 (≈ 2.13 µg/mL) | 1.56 (≈ 0.533 µg/mL) | 3.13 (≈ 1.07 µg/mL) | 2.3 (≈ 0.785 µg/mL) | 12.5 (≈ 4.27 µg/mL) | 1.56 (≈ 0.533 µg/mL) | 4.51 (≈ 1.54 µg/mL) | 3.13 (≈ 1.07 µg/mL) | 0.6 (≈ 0.205 µg/mL) | 1.56 (≈ 0.533 µg/mL) | 6.25 (≈ 2.13 µg/mL) | 12.5 (≈ 4.27 µg/mL) | 2.3 (≈ 0.785 µg/mL) | 3.6 (≈ 1.23 µg/mL) | 2.3 (≈ 0.785 µg/mL) | > 100 | 1.56 (≈ 0.533 µg/mL) | 2.3 (≈ 0.785 µg/mL) | 
COC(=O)c1c(NC(=O)c2c(F)c(F)c(F)c(F)c2F)sc2c1CCCCC2 | 1.5 (≈ 0.629 µg/mL) | 2.3 (≈ 0.965 µg/mL) | 1.2 (≈ 0.503 µg/mL) | 0.78 (≈ 0.327 µg/mL) | 3.1 (≈ 1.3 µg/mL) | 1.56 (≈ 0.654 µg/mL) | 0.86 (≈ 0.361 µg/mL) | 0.78 (≈ 0.327 µg/mL) | 0.6 (≈ 0.252 µg/mL) | 1.2 (≈ 0.503 µg/mL) | 3.1 (≈ 1.3 µg/mL) | 3.1 (≈ 1.3 µg/mL) | 0.78 (≈ 0.327 µg/mL) | 3.8 (≈ 1.59 µg/mL) | 1.56 (≈ 0.654 µg/mL) | 7.5 | 1.56 (≈ 0.654 µg/mL) | 0.6 (≈ 0.252 µg/mL) | 
CCCCc1ccc(C(=O)Nc2nccc3ccccc23)nc1 | 3.12 (≈ 0.953 µg/mL) | 6.25 (≈ 1.91 µg/mL) | 9.4 (≈ 2.87 µg/mL) | 1.56 (≈ 0.476 µg/mL) | 6.25 (≈ 1.91 µg/mL) | 4.7 (≈ 1.44 µg/mL) | 39.1 (≈ 11.9 µg/mL) | 6.25 (≈ 1.91 µg/mL) | 0.78 (≈ 0.238 µg/mL) | 4.7 (≈ 1.44 µg/mL) | 6.25 (≈ 1.91 µg/mL) | 3.12 (≈ 0.953 µg/mL) | 0.78 (≈ 0.238 µg/mL) | 61 (≈ 18.6 µg/mL) | 6.25 (≈ 1.91 µg/mL) | 73.8 | 1.56 (≈ 0.476 µg/mL) | 2.3 (≈ 0.702 µg/mL) | 
COc1ccccc1OCCCCn1c(C2CC2)nc2ccccc21 | 6.25 (≈ 2.1 µg/mL) | > 50 | > 50 | 0.6 (≈ 0.202 µg/mL) | > 50 | 37 (≈ 12.4 µg/mL) | > 100 | 37 (≈ 12.4 µg/mL) | 3.13 (≈ 1.05 µg/mL) | > 50 | 25 (≈ 8.41 µg/mL) | 50 (≈ 16.8 µg/mL) | 0.2 (≈ 0.0673 µg/mL) | 16.4 (≈ 5.52 µg/mL) | 19 (≈ 6.39 µg/mL) | 100 | 4.7 (≈ 1.58 µg/mL) | 9.4 (≈ 3.16 µg/mL) | 
CCC(C)NC(=O)c1ccc(NC(=O)C2(c3ccccc3)CCCC2)cc1 (stereo not given) | > 50 | > 50 | > 50 | > 50 | > 50 | > 50 | > 100 | > 50 | > 50 | > 50 | > 50 | > 50 | 12.5 (≈ 4.56 µg/mL) | > 100 | > 50 | > 100 | > 50 | > 50 | 
O=C(NC1CCCCC1)N1CCN(Cc2ccc3c(c2)OCO3)CC1 | > 50 | > 50 | > 50 | 1.2 (≈ 0.415 µg/mL) | 50 (≈ 17.3 µg/mL) | 50 (≈ 17.3 µg/mL) | > 100 | > 50 | 6.25 (≈ 2.16 µg/mL) | > 50 | 50 (≈ 17.3 µg/mL) | > 50 | 0.78 (≈ 0.269 µg/mL) | > 100 | 12.5 (≈ 4.32 µg/mL) | > 100 | 12.5 (≈ 4.32 µg/mL) | 9.4 (≈ 3.25 µg/mL) | 
CCCCOC(=O)Nc1cc2nc(C3CCCCC3)[nH]c2cc1N1CCCC1 | 0.39 (≈ 0.15 µg/mL) | 0.2 (≈ 0.0769 µg/mL) | 0.39 (≈ 0.15 µg/mL) | 0.15 (≈ 0.0577 µg/mL) | 0.78 (≈ 0.3 µg/mL) | 0.2 (≈ 0.0769 µg/mL) | 0.3 (≈ 0.115 µg/mL) | 0.2 (≈ 0.0769 µg/mL) | 0.1 (≈ 0.0385 µg/mL) | 0.05 (≈ 0.0192 µg/mL) | 0.78 (≈ 0.3 µg/mL) | 0.78 (≈ 0.3 µg/mL) | 0.1 (≈ 0.0385 µg/mL) | 97.3 (≈ 37.4 µg/mL) | 0.2 (≈ 0.0769 µg/mL) | 26.8 | 0.2 (≈ 0.0769 µg/mL) | 0.15 (≈ 0.0577 µg/mL) | 
Nc1ncnc2c1ncn2[C@@H]1O[C@H](COS(=O)(=O)NC(=O)c2ccccc2O)[C@@H](O)[C@H]1O | > 50 | > 50 | > 50 | 0.6 (≈ 0.28 µg/mL) | > 50 | > 50 | > 100 | > 50 | > 50 | > 50 | > 50 | > 50 | 0.3 (≈ 0.14 µg/mL) | > 100 | 9.4 (≈ 4.38 µg/mL) | > 100 | > 50 | > 50 | 
O=C(NCCc1c[nH]c2ccccc12)c1cc2ccccc2oc1=O | 12.5 (≈ 4.15 µg/mL) | 0.78 (≈ 0.259 µg/mL) | 1.56 (≈ 0.518 µg/mL) | 0.6 (≈ 0.199 µg/mL) | > 50 | 3.13 (≈ 1.04 µg/mL) | 7.71 (≈ 2.56 µg/mL) | 0.78 (≈ 0.259 µg/mL) | 1.2 (≈ 0.399 µg/mL) | 0.78 (≈ 0.259 µg/mL) | 50 (≈ 16.6 µg/mL) | > 50 | 0.3 (≈ 0.0997 µg/mL) | 4.78 (≈ 1.59 µg/mL) | 0.78 (≈ 0.259 µg/mL) | > 100 | 4.7 (≈ 1.56 µg/mL) | 1.56 (≈ 0.518 µg/mL) | 
Cc1cc(Nc2ccc(C(F)(F)F)cc2)n2ccnc2n1 |  |  |  |  |  |  |  |  |  |  |  |  |  |  |  |  |  |  | IC50 [19]: 0.36 µM; inhibition [20]: Series known to be inactive; IC50 [21]: 0.38 µM; inhibition [22]: Series known to be active
O=C(NCCN1CCCC1)c1cc(NCCCCN2CCC(F)(F)CC2)nc2ccc(Cl)cc12 |  |  |  |  |  |  |  |  |  |  |  |  |  |  |  |  |  |  | inhibition [20]: Series known to be active; IC50 [21]: 0.01 µM; inhibition [22]: Series known to be active
O=C(COc1cccc(F)c1)Nc1nc(-c2ccccn2)cs1 | 12.5 (≈ 4.12 µg/mL) | 50 (≈ 16.5 µg/mL) | 37 (≈ 12.2 µg/mL) | 2.3 (≈ 0.758 µg/mL) | > 50 | 50 (≈ 16.5 µg/mL) | 84.4 (≈ 27.8 µg/mL) | 19 (≈ 6.26 µg/mL) | 19 (≈ 6.26 µg/mL) | 37 (≈ 12.2 µg/mL) | 25 (≈ 8.23 µg/mL) | > 50 | 1.2 (≈ 0.395 µg/mL) | 27.5 (≈ 9.07 µg/mL) | 50 (≈ 16.5 µg/mL) |  | 37 (≈ 12.2 µg/mL) | 19 (≈ 6.26 µg/mL) | 
Nc1ncnc2c1ncn2C[C@@H](O)[C@@H](O)C(=O)O [ERITADENINE] |  |  |  |  |  |  |  |  |  |  |  |  |  |  |  |  |  |  | CC20 [23]: >80 µM
O=C(C1CCN(c2nnnn2-c2ccccc2)CC1)N1CCc2ccccc2C1 |  |  |  |  |  |  |  |  |  |  |  |  |  |  |  |  |  |  | inhibition [21]: inactive; CC20 [23]: >80 µM
COc1ccc(-c2cc(NC(=O)c3ccc(F)cc3Cl)ccc2OC)cc1 |  |  |  | 19 (≈ 7.33 µg/mL) |  |  |  |  | 25 (≈ 9.65 µg/mL) |  |  |  | 3.13 (≈ 1.21 µg/mL) | 67.7 (≈ 26.1 µg/mL) | 50 (≈ 19.3 µg/mL) | > 100 |  |  | 
